Measured values taken from patent US4772602A, “N-substituted 3,4-dihydropyrimidine derivatives as agents for treating disorders of cardiovascular system” (Suntory Limited, priority 1985, dated 1988).
Read-outs that look alike come from different tables or passages of the source.

Legend:
[1] = system: isolated guinea pig hearts (coronary artery); assay: coronary vascular dilative effect in isolated guinea pig hearts (Langendorff's method); parameters: species or system guinea pig (Heartley); conditions: 37° C., 0.1 ml administered into the coronary artery
Procedure: The coronary vascular dilative effect of 3N-substituted 3,4-dihydropyrimidine derivatives was tested.
Heartley guinea pigs (weight 400-500 g) were killed by a blow on the head and their hearts were immediately isolated. The hearts were perfused with Krebs-Henseleit solution bubbled with a mixture of 95% O2 +5% CO2 and maintained at 37° C. at a constant rate of 6 ml/minute according to the Langendorff's method [J. Pharmacol. Methods 2, 143 (1979)]. The perfusion pressure was measured by a pressure transducer continuously. Samples were prepared by emulsifying 1 mg of a test compound in 1 ml of a mixture of dimethylsulfoxide and physiological saline solution (1:9) and diluting with physiological saline solution to the predetermined concentration. 0.1 ml of the diluted solution was administered into the coronary artery via a rubber tube connected to an aorta cannula to obtain ED50 (μg/heart) data as shown in Table 3. The numbers of the compounds in the Table correspond respectively to those of the working examples described above.

[2] = system: vertebral artery; assay: vascular resistance of the vertebral artery in anesthetized dogs (ED30); type: in vivo, dog; conditions: Canis lupus familiaris, intravenous injection
Procedure: The pharmacological effect (ED30) of the compounds of the present invention with respect to the vascular resistance of the vertebral artery in anesthetized dogs was treated by the following procedure.
Adult dogs of either sex (7-14 kg in body weight) were anesthetized with at first thiopental sodium (35 mg/kg, intraperitoneal), anesthetized with urethane (400 mg/kg, intravenous) and chloralose (60 mg/kg, intravenous) and kept under artificial respiration throughout the experiment. After thoracotomy at the left first intercostal space, the vertebral artery was exposed and blood flow was measured with intracorporeal flow probe connected to an electromagnetic flowmeter (MF-27, Nihon Kohden).
At the same time, continuous measurement of the following parameters was made: systemic blood pressure (mean pressure) at the right femoral artery, the limb lead II ECG, the heart rate with a tachometer triggered by the R wave of ECG, and the vascular resistance determined by loading a electronic divider unit (EO-601 G, Nihon Kohden) with the mean values of blood pressure and vertebral artery blood flow. All of these parameters were recorded simultaneously on a polygraph (RM-600, Nihon Kohden).
All the test compounds were injected through a cannula inserted into the femoral vein.
The ED30 (μg/kg) values obtained by intravenous injection are listed in Table 4, wherein the Compound Numbers are keyed to the Example Numbers.

[3] = system: conscious spontaneously hypertensive rats (SHR); assay: hypotensive action in conscious spontaneously hypertensive rats (SHR); type: in vivo, rat (SHR); conditions: 10 mg/kg orally
Procedure: A selected compound of the present invention was tested for its hypotensive action in conscious spontaneously hypertensive rats (SHR).
A group of 17 to 20-week old male SHR were anesthetized with ether and a cannula was inserted into the left femoral artery. At least one day after the operation, the cannula was connected to a pressure transducer and the blood pressure was measured continuously under conscious and unrestrained condition, thereby obtaining the data shown in Table 6. The test compound as clear solution dissolved in 10% ethanol was administered orally at a dose of 10 mg/kg (body weight) to each animal fasted overnight.

[4] = acute toxicity (LD50), Litchfield-Wilcoxon method; parameters: species or system mouse (male ddY); conditions: mouse, in vivo, emulsion in 10% dimethyl sulfoxide
Procedure: The acute toxicity (LD50) data of compound No. 28 of the present invention as administered to two groups of 5 or 6-week old male ddY mice were obtained by the Litchfield-Wilcoxon method. One group of mice was fasted overnight prior to oral administration. To each group of mice, the test compound was administered in the form of emulsion in 10% dimethyl sulfoxide.

| SMILES | ED50 (coronary vascular dilative effect) [1] [μg/heart] | ED30 [2] [mg/kg] | time of maximum blood pressure decrease [3] [h] | Blood pressure decrease, 6 hours ([3]; 6 hours) | Blood pressure decrease, maximum decrease ([3]; in 2 hrs) [%] | LD50 ([4]; male ddY mice fasted overnight, oral, read-out: LD50 oral) [mg/kg] | LD50 ([4]; male ddY mice, intravenous, read-out: LD50 intravenous) [mg/kg] |
| --- | --- | --- | --- | --- | --- | --- | --- |
| CC1=NC(C)=C(C(=O)OCC2CC2)C(c2ccccc2[N+](=O)[O-])N1C(=O)OCCN(C)Cc1ccccc1Cl (stereo not drawn) [Compound 6] | 0.0092 | 0.0014 |  |  |  |  |  |
| CC1=NC(C)=C(C(=O)OCC2CC2)C(c2ccccc2[N+](=O)[O-])N1C(=O)OCCN(C)Cc1ccc([N+](=O)[O-])cc1 (stereo not drawn) [Compound 7] | 0.0012 | 0.00071 |  |  |  |  |  |
| CC1=NC(C)=C(C(=O)OCC2CC2)C(c2ccccc2[N+](=O)[O-])N1C(=O)OCCCCCN(C)Cc1ccccc1 (stereo not drawn) [Compound 9] | 0.10 | 0.0039 |  |  |  |  |  |
| CC1=NC(C)=C(C(=O)OC(C)C)C(c2ccccc2[N+](=O)[O-])N1C(=O)OCCN(C)Cc1ccccc1 (stereo not drawn) [Compound 10] | 0.060 | 0.00054 |  |  |  |  |  |
| CC1=NC(C)=C(C(=O)OCC2CC2)C(c2ccccc2[N+](=O)[O-])N1C(=O)OCCN(C)Cc1ccc(F)cc1 (stereo not drawn) [Compound 11] | 0.030 | 0.00055 |  |  |  |  |  |
| CC1=NC(C)=C(C(=O)OCC2CC2)C(c2ccccc2[N+](=O)[O-])N1C(=O)OCCN1CCc2ccccc2C1 (stereo not drawn) [Compound 21] | 0.45 | 0.002 |  |  |  |  |  |
| CC1=NC(C)=C(C(=O)OCC2CC2)C(c2ccccc2[N+](=O)[O-])N1C(=O)OCCN(CCCc1ccccc1)Cc1ccccc1 (stereo not drawn) [Compound 28, 3-[2-{N-benzyl-N-(3-phenylpropyl)amino}ethoxycarbonyl]-5-cyclopropylmethoxycarbonyl-2,6-dimethyl-4-(2-nitrophenyl)-3,4-dihydropyrimidine] |  | 0.0042 | 2 | 10-20% | 35 | > 1000 | 180 to 200 |
